The results in this text go back to patent US6410558B1, “Fungicides for the control of take-all disease of plants” (Monsanto Technology LLC, priority 1991, dated 2002).

A value given as a limit tells only on which side of the number the result lay.

One assay has as its system Gaeumannomyces graminis var. tritici (Ggt). Nature of the assay: In vitro Assay: mycelial growth of Ggt on minimal media agar plates containing test compound. It counts as cell-based. Particulars: 0.1 ppm in minimal media agar; dark, 19-20° C., 4 to 5 days; diameter of mycelial growth. On the procedure:
The test compounds (0.25 mL of an appropriate stock solution in acetone) are incorporated into 25 mL minimal media agar [(prepared by autoclaving a solution of 17.5 g Czapek Dox broth (Difco), 7.5 g purified agar or Bacto-agar (Difco), and 500 mL distilled/deionized water, and then adding 50 μL of 1 mg/mL thiamine hydrochloride and 50 μL of 1 mg/mL biotin in 5% ethanol] and plates are prepared.
Each plate is inoculated by placing in a triangular shape three 4-mm plugs of Gaeumannomyces graminis var. tritici (Ggt) grown on the minimal media agar described above. The plates are incubated in the dark at 19-20° C. for 4 to 5 days. The growth of the fungus is measured as the diameter of the mycelial growth. The result is expressed as Percent Inhibition, calculated as [1-[(mm growth on treated plate −4)/(mm growth on control plate −4)]]×100.
As to `C[Si](C)(C)c1cccc(Cl)c1C(=O)N1CC=CCC1` [Example 148, 1-[2-Chloro-6-(trimethylsilyl)benzoyl]-1,2,3,6-(tetrahydro)pyridine], the “In vitro (ppm) 0.1, Percent Inhibition” value was “N (If the calculation resulted in “0” or less, as compared to the untreated control, a “N” is shown to indicate no control.)”.

The same assay, now with this note: 1 ppm in minimal media agar; dark, 19-20° C., 4 to 5 days; diameter of mycelial growth.
With `C[Si](C)(C)c1cccc(Cl)c1C(=O)N1CC=CCC1` [Example 148, 1-[2-Chloro-6-(trimethylsilyl)benzoyl]-1,2,3,6-(tetrahydro)pyridine], the “In vitro (ppm) 1, Percent Inhibition” value is given as “N (If the calculation resulted in “0” or less, as compared to the untreated control, a “N” is shown to indicate no control.)”.

The assay is the same for the next values; noted with them: 10 ppm in minimal media agar; dark, 19-20° C., 4 to 5 days; diameter of mycelial growth.
On to `C[Si](C)(C)c1cccc(Cl)c1C(=O)N1CC=CCC1` [Example 148, 1-[2-Chloro-6-(trimethylsilyl)benzoyl]-1,2,3,6-(tetrahydro)pyridine], for which the “In vitro (ppm) 10, Percent Inhibition” value stood at 53%.

The assay is the same for the next values; noted with them: Gaeumannomyces graminis; 0.1 ppm in minimal media agar; dark, 19-20° C., 4 to 5 days; diameter of mycelial growth; read-out: In vitro (ppm) 0.1, Percent Inhibition.
As a reminder, the inhibition is the drop in the measured response relative to a control, in per cent. Turning to `C[Si](C)(C)c1ccc(F)c([Si](C)(C)C)c1C(=O)N1CCCC1` [Example 118, 1-[3-Fluoro-2,6-bis(trimethylsilyl)benzoyl]pyrrolidine], the inhibition at 0.1 ppm was less than 0%.

With `Cc1ccccc1NC(=O)c1c(Br)cccc1[Si](C)(C)C` [Example 120, 2-Bromo-N-(2-methylphenyl)-6-(trimethylsilyl)benzamide], the inhibition at 0.1 ppm is less than 0%.

On to `Cc1ccccc1NC(=O)c1ccccc1[Si](C)(C)C` [Example 121, N-(2-Methylphenyl)-2-(trimethylsilyl)benzamide], for which the inhibition at 0.1 ppm was determined as 4%.

For the compound `CCNC(=O)c1c(Cl)cccc1-c1ccc2ccccc2c1` [Example 122, 2-Chloro-N-ethyl-6-(2-naphthalenyl)benzamide], the inhibition at 0.1 ppm was less than 0%.

For `CCNC(=O)c1c(F)cccc1C1(C)CCCC1` [Example 123, N-Ethyl-2-fluoro-6-(1-methylcyclopentyl)benzamide], the inhibition at 0.1 ppm worked out at 11%.

As for `CCNC(=O)c1ccncc1[Si](C)(C)C` [Example 124, N-Ethyl-3-(trimethylsilyl)-4-pyridinecarboxamide], the inhibition at 0.1 ppm is less than 0%.

For the compound `CCN(Cc1ccco1)C(=O)c1c(Cl)cccc1[Si](C)(C)C` [Example 125, 2-Chloro-N-ethyl-N-(2-furylmethyl)-6-(trimethylsilyl)benzamide], the inhibition at 0.1 ppm is less than 0%.

As to `CC(C)N(C(=O)c1c(Cl)cccc1[Si](C)(C)C)C(C)C` [Example 126, 2-Chloro-N,N-bis(1-methylethyl)-6-(trimethylsilyl)benzamide], the inhibition at 0.1 ppm turned out to be 15%.

Turning to `CCN(COC)C(=O)c1c(C)cccc1[Si](C)(C)C` [Example 127, N-Ethyl-N-(methoxymethyl)-2-methyl-6-(trimethylsilyl)benzamide], the inhibition at 0.1 ppm is less than 0%.

For the compound `CCOCCN(CC)C(=O)c1c(Cl)cccc1[Si](C)(C)C` [Example 128, 2-Chloro-N-(2-ethoxyethyl)-N-ethyl-6-(trimethylsilyl)benzamide], the inhibition at 0.1 ppm amounted to 4%.

With `C[Si](C)(C)c1cccc(Cl)c1C(=O)NC1CCCCC1` [Example 129, 2-Chloro-N-cyclohexyl-6-(trimethylsilyl)benzamide], the inhibition at 0.1 ppm stood at 9%.

Regarding `CC1CCCC(C)N1C(=O)c1c(Cl)cccc1[Si](C)(C)C` (stereo not drawn) [Example 131, N-[2-Chloro-6-(trimethylsilyl)benzoyl]-2,6-dimethylpiperidine], the inhibition at 0.1 ppm is less than 0%.

In the case of `C[Si](C)(C)c1cccc(Cl)c1C(=O)NCc1ccccn1` [Example 135, 2-Chloro-N-(2-pyridinylmethyl)-6-(trimethylsilyl)benzamide], the inhibition at 0.1 ppm was determined as 22%.

Still in this assay, the particulars now being: Gaeumannomyces graminis; 1 ppm in minimal media agar; dark, 19-20° C., 4 to 5 days; diameter of mycelial growth; read-out: In vitro (ppm) 1, Percent Inhibition.
As for `C[Si](C)(C)c1ccc(F)c([Si](C)(C)C)c1C(=O)N1CCCC1` [Example 118, 1-[3-Fluoro-2,6-bis(trimethylsilyl)benzoyl]pyrrolidine], the inhibition at 1 ppm is less than 0%.

On to `Cc1ccccc1NC(=O)c1c(Br)cccc1[Si](C)(C)C` [Example 120, 2-Bromo-N-(2-methylphenyl)-6-(trimethylsilyl)benzamide], for which the inhibition at 1 ppm worked out at 26%.

`Cc1ccccc1NC(=O)c1ccccc1[Si](C)(C)C` [Example 121, N-(2-Methylphenyl)-2-(trimethylsilyl)benzamide]: the inhibition at 1 ppm came out at 8%.

For `CCNC(=O)c1c(Cl)cccc1-c1ccc2ccccc2c1` [Example 122, 2-Chloro-N-ethyl-6-(2-naphthalenyl)benzamide], the inhibition at 1 ppm was less than 0%.

Turning to `CCNC(=O)c1c(F)cccc1C1(C)CCCC1` [Example 123, N-Ethyl-2-fluoro-6-(1-methylcyclopentyl)benzamide], the inhibition at 1 ppm amounted to 78%.

For `CCNC(=O)c1ccncc1[Si](C)(C)C` [Example 124, N-Ethyl-3-(trimethylsilyl)-4-pyridinecarboxamide], the inhibition at 1 ppm is less than 0%.

On to `CCN(Cc1ccco1)C(=O)c1c(Cl)cccc1[Si](C)(C)C` [Example 125, 2-Chloro-N-ethyl-N-(2-furylmethyl)-6-(trimethylsilyl)benzamide], for which the inhibition at 1 ppm is less than 0%.

On to `CC(C)N(C(=O)c1c(Cl)cccc1[Si](C)(C)C)C(C)C` [Example 126, 2-Chloro-N,N-bis(1-methylethyl)-6-(trimethylsilyl)benzamide], for which the inhibition at 1 ppm was found to be 4%.

Consider `CCN(COC)C(=O)c1c(C)cccc1[Si](C)(C)C` [Example 127, N-Ethyl-N-(methoxymethyl)-2-methyl-6-(trimethylsilyl)benzamide], for which the inhibition at 1 ppm amounted to 21%.

In the case of `CCOCCN(CC)C(=O)c1c(Cl)cccc1[Si](C)(C)C` [Example 128, 2-Chloro-N-(2-ethoxyethyl)-N-ethyl-6-(trimethylsilyl)benzamide], the inhibition at 1 ppm came out at 8%.

In the case of `C[Si](C)(C)c1cccc(Cl)c1C(=O)NC1CCCCC1` [Example 129, 2-Chloro-N-cyclohexyl-6-(trimethylsilyl)benzamide], the inhibition at 1 ppm was 35%.

Consider `CC1CCCC(C)N1C(=O)c1c(Cl)cccc1[Si](C)(C)C` (stereo not drawn) [Example 131, N-[2-Chloro-6-(trimethylsilyl)benzoyl]-2,6-dimethylpiperidine], for which the inhibition at 1 ppm came to 6%.

Consider `C[Si](C)(C)c1cccc(Cl)c1C(=O)NCc1ccccn1` [Example 135, 2-Chloro-N-(2-pyridinylmethyl)-6-(trimethylsilyl)benzamide], for which the inhibition at 1 ppm was 17%.

The assay is the same for the next values; noted with them: Gaeumannomyces graminis; 10 ppm in minimal media agar; dark, 19-20° C., 4 to 5 days; diameter of mycelial growth; read-out: In vitro (ppm) 10, Percent Inhibition.
In the case of `C[Si](C)(C)c1ccc(F)c([Si](C)(C)C)c1C(=O)N1CCCC1` [Example 118, 1-[3-Fluoro-2,6-bis(trimethylsilyl)benzoyl]pyrrolidine], the inhibition at 10 ppm was determined as 38%.

As for `Cc1ccccc1NC(=O)c1c(Br)cccc1[Si](C)(C)C` [Example 120, 2-Bromo-N-(2-methylphenyl)-6-(trimethylsilyl)benzamide], the inhibition at 10 ppm came to 100%.

Consider `Cc1ccccc1NC(=O)c1ccccc1[Si](C)(C)C` [Example 121, N-(2-Methylphenyl)-2-(trimethylsilyl)benzamide], for which the inhibition at 10 ppm amounted to 31%.

As for `CCNC(=O)c1c(Cl)cccc1-c1ccc2ccccc2c1` [Example 122, 2-Chloro-N-ethyl-6-(2-naphthalenyl)benzamide], the inhibition at 10 ppm was 67%.

Regarding `CCNC(=O)c1c(F)cccc1C1(C)CCCC1` [Example 123, N-Ethyl-2-fluoro-6-(1-methylcyclopentyl)benzamide], the inhibition at 10 ppm came to 89%.

Take `CCNC(=O)c1ccncc1[Si](C)(C)C` [Example 124, N-Ethyl-3-(trimethylsilyl)-4-pyridinecarboxamide]: the inhibition at 10 ppm amounted to 62%.

With `CCN(Cc1ccco1)C(=O)c1c(Cl)cccc1[Si](C)(C)C` [Example 125, 2-Chloro-N-ethyl-N-(2-furylmethyl)-6-(trimethylsilyl)benzamide], the inhibition at 10 ppm was found to be 89%.

On to `CC(C)N(C(=O)c1c(Cl)cccc1[Si](C)(C)C)C(C)C` [Example 126, 2-Chloro-N,N-bis(1-methylethyl)-6-(trimethylsilyl)benzamide], for which the inhibition at 10 ppm is 93%.

In the case of `CCN(COC)C(=O)c1c(C)cccc1[Si](C)(C)C` [Example 127, N-Ethyl-N-(methoxymethyl)-2-methyl-6-(trimethylsilyl)benzamide], the inhibition at 10 ppm is 74%.

For the compound `CCOCCN(CC)C(=O)c1c(Cl)cccc1[Si](C)(C)C` [Example 128, 2-Chloro-N-(2-ethoxyethyl)-N-ethyl-6-(trimethylsilyl)benzamide], the inhibition at 10 ppm stood at 50%.

Take `C[Si](C)(C)c1cccc(Cl)c1C(=O)NC1CCCCC1` [Example 129, 2-Chloro-N-cyclohexyl-6-(trimethylsilyl)benzamide]: the inhibition at 10 ppm is 26%.

As to `CC1CCCC(C)N1C(=O)c1c(Cl)cccc1[Si](C)(C)C` (stereo not drawn) [Example 131, N-[2-Chloro-6-(trimethylsilyl)benzoyl]-2,6-dimethylpiperidine], the inhibition at 10 ppm is 3%.

For `C[Si](C)(C)c1cccc(Cl)c1C(=O)NCc1ccccn1` [Example 135, 2-Chloro-N-(2-pyridinylmethyl)-6-(trimethylsilyl)benzamide], the inhibition at 10 ppm stood at 39%.
